Measurements from the CheMixHub ionic liquid set.

Assay: xn = mol fraction of the nth substance listed

CCC[n+]1ccn(C)c1.COS(=O)(=O)[O-] + O
viscosity [mPa·s], 101 kPa
Conditions	298.15 K	308.15 K	318.15 K	328.15 K
x1 = 0.000281	0.799	0.699	0.62	0.566
x1 = 0.0007725	0.805	0.709	0.638	0.57
x1 = 0.0009344	0.814	0.717	0.642	0.575
x1 = 0.001368	0.819	0.727	0.647	0.58
x1 = 0.001628	0.813	0.735	0.66	0.588
x1 = 0.002412	0.829	0.758	0.658	0.602
x1 = 0.004829	0.838	0.796	0.702	0.647
x1 = 0.007746	0.886	0.847	0.757	0.701
x1 = 0.009565	0.931	0.888	0.81	0.736
x1 = 0.01237	0.999	0.93	0.865	0.79
x1 = 0.01639	1.113	1.021	0.963	0.878
x1 = 0.01912	1.182	1.072	1.017	0.953
x2 = 0.9709	1.48	1.268	1.247	1.122
x2 = 0.9746	1.387	1.205	1.167	1.054

CC[n+]1ccn(C)c1.COP(=O)([O-])OC + O
101 kPa
Conditions	viscosity [mPa·s]
293.15 K, x2 = 0.198	292
298.15 K, x2 = 0.198	212
303.15 K, x2 = 0.198	157.4
318.15 K, x2 = 0.198	73.7
318.15 K, x2 = 0.399	52.73
318.15 K, x2 = 0.799	11.57
328.15 K, x2 = 0.399	35.56
333.15 K, x2 = 0.198	40.33

CC[n+]1ccn(C)c1.F[B-](F)(F)F + O
298 K, 101 kPa
Conditions	electrical conductivity [S/m]
x2 = 0.78	8.27
x2 = 0.84	8.63

CC[n+]1ccn(C)c1.O=S(=O)([N-]S(=O)(=O)C(F)(F)F)C(F)(F)F + O
Conditions	electrical conductivity [S/m]	viscosity [mPa·s]
297.55 K, 101 kPa, x1 = 0.889	–	26
297.85 K, 101 kPa, x2 = 0.205	1.22	–
298 K, 101 kPa, x2 = 0.02	–	32.3
298 K, 101 kPa, x2 = 0.0629	–	30.8
298 K, 101 kPa, x2 = 0.199	–	25.4
298 K, 101 kPa, x2 = 0.227	–	25.2
298.15 K, 101 kPa, x2 = 0.205	1.3	–
299.15 K, 101 kPa, x2 = 0.205	1.32	–
300.35 K, 101 kPa, x2 = 0.205	1.38	–
302.15 K, 101 kPa, x2 = 0.205	1.45	–
302.85 K, 101 kPa, x2 = 0.205	1.51	–
303.15 K, 100 kPa, x2 = 0.298	–	16.23
303.95 K, 101 kPa, x2 = 0.205	1.61	–
304.95 K, 101 kPa, x2 = 0.205	1.66	–
313.15 K, 100 kPa, x2 = 0.298	–	12.29
333.15 K, 100 kPa, x2 = 0.298	–	7.749

C[N+](C)(C)Cc1ccccc1.[Cl-] + O
electrical conductivity [S/m], 101.3 kPa, frequency 0.001 MHz
Conditions	298.15 K	308.15 K	318.15 K
x1 = 1.802e-05	0.0137	0.0183	0.0233
x1 = 5.406e-05	0.0295	0.0398	0.0456
x1 = 9.009e-05	0.0457	0.0565	0.0643

viscosity [mPa·s]
Conditions	298.15 K	303.15 K	308.15 K	318.15 K
100 kPa, x1 = 0.0004874	–	0.813	–	–
101.3 kPa, x1 = 1.802e-05	0.88	–	–	0.611
101.3 kPa, x1 = 5.406e-05	–	–	0.747	0.627
101.3 kPa, x1 = 9.009e-05	0.914	–	0.766	0.646
